# Experimental data reported in patent publication US20230174649A1, “PHARMACEUTICAL COMPOSITIONS CONTAINING ANTI-CD47 ANTIBODIES” (I-MAB BIOPHARMA US LIMITED, priority 2020, published 2023).
# Values joined by “and” are separate entries in the source; they are usually repeats but may differ in a detail not shown here. Identical values can stand only once.
# Tested on: macrophages
# Experiment: Macrophage Viability Assay (CellTiter-Glo)
# Format: cell-based, Human
# Conditions: for Macrophage viability (CellTiter-Glo Luminescent Cell Viability Assay): 16 hours, three replicate lines
# Description: Then, the monocytes isolated by MACS were subsequently cultured in fresh complete medium supplemented with recombinant human granulocyte-macrophage colony-stimulating factor GM-CSF (50 ng/ml) and human recombinant IL-4 (35 ng/ml) to activate differentiated macrophages. After 6 days of culture (on day 7), cells were harvested, pooled together and counted for next use.
# The cells from Example 2 were plated into a 96-well flat bottom plate at a density of 0.05×10^6 cells/well. After 2 hours of incubation, the macrophages were well attached to the plate. Then selected small molecule therapeutic agents were added to the well and cocultured for 16 hours. On day 8, macrophage viability was assessed by CellTiter-Glo® Luminescent Cell Viability Assay, according to the manufacture's instruction.
smiles,measurement,setting,value
Nc1ncn([C@@H]2O[C@H](CO)[C@@H](O)[C@H]2O)c(=O)n1 [Azacitidine],Macrophage viability (CellTiter-Glo Luminescent Cell Viability Assay),Cpd 0.002 uM,4076 and 6020 and 5860
same,Macrophage viability (CellTiter-Glo Luminescent Cell Viability Assay),Cpd 0.008 uM,4648 and 6100 and 6132
same,Macrophage viability (CellTiter-Glo Luminescent Cell Viability Assay),Cpd 0.04 uM,4792 and 5892 and 6380
same,Macrophage viability (CellTiter-Glo Luminescent Cell Viability Assay),Cpd 0.2 uM,5160 and 6136 and 6440
same,Macrophage viability (CellTiter-Glo Luminescent Cell Viability Assay),Cpd 1 uM,5140 and 6108 and 6256
same,Macrophage viability (CellTiter-Glo Luminescent Cell Viability Assay),Cpd 5 uM,4768 and 6132 and 6032
same,Macrophage viability (CellTiter-Glo Luminescent Cell Viability Assay),Cpd 25 uM,4560 and 5520 and 5324
same,Macrophage viability (CellTiter-Glo Luminescent Cell Viability Assay),Cpd 50 uM,4580 and 5420 and 4932
same,toxicity to macrophages,dose as high as 50 μM,showed toxicity
same,toxicity to macrophages,dose lower than 10 μM,little toxic
